Measurements as given in patent US20120009203A1, “Depletion of cancer stem cells” (priority 2010, published 2012).
“Also recorded” adds a separate entry of the source.

How the values were obtained:
OSCCs = assay: Cell death of OSCCs by propidium iodide staining; format: cell-based, human; details: for levels of cell death (propidium iodide staining): overnight; for Dose dependent effect on oral tumors: UC-1 (OSCCs, differentiated oral tumor), FIG. 25
Method: (§1) OSCSCs and OSCCs were treated with HEMA (1:600) and the chemotherapeutic drug cisplatinum at 10 μg/ml, 40 μg/ml and 80 μg/ml. After an overnight incubation the levels of cell death in each tumor type was determined using propidium iodide staining.
(§2) OSCSCs and OSCCs were irradiated at 2 Gy, 10 Gy and 20 Gy and left untreated or treated with chemotherapeutic drug cisplatinum at 40 μg/ml. After an overnight incubation the levels of cell death in each tumor type was determined using propidium iodide staining.
(§3) OSCSC and OSCCs were treated with Paclitaxel at 10 μg/ml, 40 μg/ml and 80 μg/ml in the presence and absence of NAC (20 mM) and after an overnight incubation the levels of cell death were determined using propidium iodide staining.

OSCSCs [1] = assay: Cell death of OSCSCs by propidium iodide staining; format: cell-based, human; details: overnight
Method: as §1, §2, §3

pancreatic cells (BXPC3) = assay: Cell death of BXPC3 pancreatic cells; format: cell-based; details: FIG. 26
lung (A549) tumors = assay: Cell death of A549 lung tumors; format: cell-based; details: A549 pre-treated 5 days with supernatants from anergized NK cells (IL-2+anti-CD16 mAb), then Cisplatin overnight; FIG. 32
Method: NK treatments were carried out for 24 hours before the supernatants were removed and used to treat A549 lung tumors for 5 days. All the NK supernatant treated lung tumors were then washed and treated with different concentrations of Cisplatin as shown in the figure and incubated overnight before they were stained with propidium iodide to determine cell death in each sample.

OSCSCs [2] = assay: Cell death of OSCSCs by propidium iodide staining; format: cell-based, human; details: UC2 (OSCSCs, stem-like oral tumors); FIG. 25
undifferentiated MSCs = assay: Cell death of MSCs versus osteoblasts, flow cytometry of PI stained cells; format: cell-based, human; details: undifferentiated MSCs compared to differentiated osteoblasts; different concentrations of HEMA; overnight; FIG. 8F
Method: FIG. 8. […] After 2 days of co-cultures, Alkaline Phosphatase staining was performed. […] The ALP stain densities for each well were determined using photoshop software (B). […] After 2 days of co-cultures Alkaline Phosphatase staining was performed. […] The ALP stain densities for each well were determined using photoshop software (D). Stem cells and Osteoblasts were cultured with and without untreated PBMCs as described above and after two days of incubation the supernatants were removed and subjected to specific ELISA for VEGF (E). Undifferentiated MSCs and those differentiated to osteoblasts were cultured in the absence and presence of different concentrations of HEMA as indicated in the figure and the levels of cell death were determined by flow cytometric analysis of PI stained MSCs and osteoblasts after an overnight incubation (F). […] After an overnight incubation, the cells were washed and B7H1 surface expression was determined on MSC gated populations. Isotype control antibodies were used as controls (I). MSCs were left untreated or treated with IFN-γ (500 u/ml). After an overnight incubation, MSCs were washed and the B7H1 surface expression was determined on MSC.
Moreover, when MSCs were cultured with NK cells alone or NK cells with monocytes significant induction of B7H1 surface expression could be observed in surviving MSCs (FIG. 8I). […]

[3] = OSCCs, HEMA 1:600, cisplatinum 10, 40 and 80 μg/ml, FIG. 15
[4] = OSCSCs, HEMA 1:600, cisplatinum 10, 40 and 80 μg/ml, FIG. 15

## N.N.[Cl][Pt][Cl] [Cisplatin, cisplatin]
OSCCs; OSCCs irradiated at 2, 10, 20 Gy, cisplatinum 40 μg/ml, FIG. 16
  levels of cell death (propidium iodide staining): lysed OSCCs significantly
OSCCs; [3]
  levels of cell death (propidium iodide staining): lysed OSCCs significantly
OSCCs
  Dose dependent effect on oral tumors: increased effect on differentiated OSCCs
OSCSCs [1]; OSCSCs irradiated at 2, 10, 20 Gy, cisplatinum 40 μg/ml, FIG. 16
  levels of cell death (propidium iodide staining): significantly more resistant; also recorded: Resistance
OSCSCs [1]; [4]
  levels of cell death (propidium iodide staining): significantly more resistant; also recorded: Resistance
Pancreatic cells (BXPC3)
  cisplatin mediated killing of pancreatic cells: Dose dependent increase
Lung (A549) tumors
  cell death by Cisplatin (propidium iodide): highest induction of cell death by Cisplatin
OSCSCs [2]
  Dose dependent effect on oral tumors: does not kill OSCSCs

## C=C(C)C(=O)OCCO [HEMA]
OSCCs; [3]
  levels of cell death (propidium iodide staining): lysed OSCCs significantly
OSCSCs [1]; [4]
  levels of cell death (propidium iodide staining): significantly more resistant; also recorded: Resistance
Undifferentiated MSCs
  levels of cell death (PI staining, flow cytometry): induced significant cell death

## CC(=O)N[C@@H](CS)C(=O)O [NAC, N-acetylcysteine]
Pancreatic cells (BXPC3); in the presence of cisplatin
  effect of NAC on cisplatin mediated killing of pancreatic cells: inhibits cisplatin mediated killing

## CC(=O)O[C@H]1C(=O)[C@@]2(C)[C@H]([C@H](OC(=O)c3ccccc3)[C@]3(O)C[C@H](OC(=O)[C@H](O)[C@@H](NC(=O)c4ccccc4)c4ccccc4)C(C)=C1C3(C)C)[C@]1(OC(C)=O)CO[C@@H]1C[C@@H]2O [Paclitaxel, paclitaxel]
OSCCs; OSCCs, Paclitaxel 10, 40 and 80 μg/ml with and without NAC 20 mM, FIG. 17
  levels of cell death (propidium iodide staining): lysed both cell types
OSCCs
  Dose dependent effect on oral tumors: affects both cell types similarly
OSCSCs [1]; OSCSCs (cancer stem cells), Paclitaxel 10, 40 and 80 μg/ml with and without NAC 20 mM, FIG. 17
  levels of cell death (propidium iodide staining): Lysis
OSCSCs [1]; OSCSCs (cancer stem cells), Paclitaxel 10, 40 and 80 μg/ml with and without NAC 20 mM, FIG. 17, listed as paclitaxel
  levels of cell death (propidium iodide staining): lysed both cell types
OSCSCs [2]
  Dose dependent effect on oral tumors: affects both cell types similarly
